# Laboratory results from publication PMC7401407, “Development of WEE2 kinase inhibitors as novel non-hormonal female contraceptives that target meiosis” (Biology of Reproduction, 2020).
# “Also recorded” adds a separate entry of the source.
# Assays:
# [1] = tested on: bovine oocytes; experiment: Bovine in vitro fertilization (exit from metaphase II arrest); assay type: cell-based
# [2] = tested on: T1, human WEE1 protein; experiment: ELISA of CDK1 phosphorylation (CycLex WEE1 Kinase Assay/Inhibitor Screening Kit), WEE1; assay type: biochemical; conditions: 1 μM inhibitor, 60 min at 30 °C
# T1 construct: purchased MBL International CYE1172
# [3] = tested on: HEK 293 cells; experiment: Somatic cell proliferation assay (dye dilution, flow cytometry); assay type: cell-based
# From the text: To determine off-target effects of inhibitors on somatic cell WEE1, a proliferation assay was used as previously reported [22]. […] Independent cell cultures were collected at 0-, 48-, 72-, and 96-h post loading with a membrane permeable fluorophore, cell trace violet dye (Cat# C34557; ThermoFisher, Waltham, MA), which diminishes in concentration within the cell after each progressive division. Duplicate samples were collected and fixed for analysis by flow cytometry.
# To evaluate the biological off-target effect of candidate inhibitors on mitosis, we use somatic cell culture and flow cytometry to assess proliferation disruption. […] Prior to each culture experiment, we treat the cells with a membrane permeable fluorescent dye to track cellular division activity. As cells divide the dye becomes diluted and the fluorescent signal decreases. We use flow cytometry, with at least 20 000 events counted to measure fluorescence intensity to indicate changes in cell proliferation in the presence of inhibitors [38]. The more inhibitory a drug, the more dye will be retained in the cells and so comparison can be made to controls to determine the level of mitotic activity.
# [4] = tested on: T2, recombinant WEE2 protein; experiment: ELISA of CDK1 phosphorylation (CycLex kit), WEE2; assay type: biochemical, human; conditions: 1 μM inhibitor, 60 min at 30 °C
# T2 construct: made in house
# [5] = tested on: MYT1 (PKMYT1); set-up: method as in PMID 28792760; conditions: direct binding studies; cited from earlier work
smiles,measurement,setting,value
"C=CCn1c(=O)c2cnc(Nc3ccc(N4CCN(C)CC4)cc3)nc2n1-c1cccc(C(C)(C)O)n1 [MK-1775, Adavosertib]",proportion of oocytes undergoing normal fertilization,[1]; 1 μM prior to and during IVF,reduction in the proportion of oocytes undergoing normal fertilization
same,reduction of MII exit compared to DMSO,"[1]; bovine oocytes co-cultured with inhibitor during IVF, N = 126",16%
same,WEE1 phosphorylation activity of CDK1,[2],significantly reduces; also recorded: significantly inhibits
same,somatic cell division activity (mitosis),"[3]; HEK 293, 0.01 μM",decrease in mitosis
same,somatic cell division activity (mitosis),"[3]; HEK 293, 0.1 μM",decrease in mitosis
same,somatic cell division activity (mitosis),"[3]; HEK 293, 1 μM",inhibited mitosis in somatic cell culture after 48 h; also recorded: arrested the cell culture
same,WEE2 phosphorylation activity of CDK1,[4],significantly reduces; also recorded: significantly inhibits
same,activity against MYT1 relative to WEE1 and WEE2,[5],significantly weaker activity
